{"source": "ChEMBL document CHEMBL2073747", "about": "“Methadone inhibits rhodamine123 transport in Caco-2 cells” (Drug Metab Dispos, 2001)", "key": {"[1]": {"target": "T1, ATP-dependent translocase ABCB1 (Homo sapiens, UniProt P08183)", "T1 sequence (P08183 whole entry)": "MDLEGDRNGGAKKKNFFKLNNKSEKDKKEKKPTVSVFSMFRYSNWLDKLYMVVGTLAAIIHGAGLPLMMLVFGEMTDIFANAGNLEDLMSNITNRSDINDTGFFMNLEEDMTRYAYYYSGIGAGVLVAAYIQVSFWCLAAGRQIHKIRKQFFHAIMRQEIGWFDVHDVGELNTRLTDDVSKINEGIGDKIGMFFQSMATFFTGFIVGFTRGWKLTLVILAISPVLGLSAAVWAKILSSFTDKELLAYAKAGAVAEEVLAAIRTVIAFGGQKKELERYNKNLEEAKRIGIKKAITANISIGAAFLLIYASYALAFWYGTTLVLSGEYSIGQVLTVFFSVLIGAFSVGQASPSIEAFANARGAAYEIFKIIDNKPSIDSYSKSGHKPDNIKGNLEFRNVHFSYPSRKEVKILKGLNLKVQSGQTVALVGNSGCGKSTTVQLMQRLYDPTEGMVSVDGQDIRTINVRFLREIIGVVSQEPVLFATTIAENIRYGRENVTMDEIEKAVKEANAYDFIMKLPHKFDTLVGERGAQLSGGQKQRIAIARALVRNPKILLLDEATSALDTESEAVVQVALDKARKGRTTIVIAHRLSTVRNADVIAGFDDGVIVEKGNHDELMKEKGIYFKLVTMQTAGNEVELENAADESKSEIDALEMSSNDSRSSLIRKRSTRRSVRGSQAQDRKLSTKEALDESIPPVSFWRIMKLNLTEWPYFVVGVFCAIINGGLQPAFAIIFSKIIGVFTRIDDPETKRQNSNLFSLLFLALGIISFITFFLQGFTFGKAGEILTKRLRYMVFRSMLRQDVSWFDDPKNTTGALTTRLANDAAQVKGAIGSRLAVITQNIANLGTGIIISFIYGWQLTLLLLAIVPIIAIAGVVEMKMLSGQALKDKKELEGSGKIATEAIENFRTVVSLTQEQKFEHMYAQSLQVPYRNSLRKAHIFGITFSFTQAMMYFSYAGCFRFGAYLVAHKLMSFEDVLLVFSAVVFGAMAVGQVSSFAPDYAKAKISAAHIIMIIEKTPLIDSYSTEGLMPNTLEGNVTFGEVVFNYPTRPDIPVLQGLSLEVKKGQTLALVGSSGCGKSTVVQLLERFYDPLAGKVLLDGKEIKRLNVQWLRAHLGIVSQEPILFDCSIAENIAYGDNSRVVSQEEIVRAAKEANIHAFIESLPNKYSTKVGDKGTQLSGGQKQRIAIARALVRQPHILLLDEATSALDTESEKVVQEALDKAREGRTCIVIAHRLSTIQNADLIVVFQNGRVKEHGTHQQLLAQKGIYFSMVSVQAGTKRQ", "assay": "TP_TRANSPORTER: inhibition of Rhodamine 123 transepithelial transport (basal to apical) (Rhodamine 123: 5 uM) in Caco-2 cells", "type": "functional, cell-based"}, "[2]": {"target": "T1, ATP-dependent translocase ABCB1", "assay": "TP_TRANSPORTER: transepithelial transport (basal to apical) in Caco-2 cells", "type": "functional, cell-based"}}}
{"smiles": "CCC(=O)C(CC(C)N(C)C)(c1ccccc1)c1ccccc1", "note": "(configuration not stated) [METHADONE]", "values": [{"measurement": "IC50", "setting": "[1]", "result": 7.5, "unit": "µM"}, {"measurement": "Activity", "setting": "[2]", "result": "is not a substrate [-]"}]}
